Reference: patent publication EP0944595B1, “5-CYCLO INDOLE COMPOUNDS AS 5-HT1D RECEPTOR LIGANDS” (NPS Allelix Corp., priority 1996, dated 1998)

System: protein extravasation
Assay: Inhibition of protein extravasation, trigeminal stimulation assay
Format: in vivo, Guinea pigs
Conditions: guinea pig dura mater, [125I]-BSA extravasation after stimulation of the right trigeminal ganglion
Method: Compounds of the inventions were evaluated for their ability to block neurogenic inflammation via inhibition of protein extravasation using the trigeminal stimulation assay as described in Markowitz, et al. J, Neurosci. 1987, 7:4129 and Lee, et al. Brain Res, 1993, 626:303. This is believed to indicate a compound's ability to act as an agonist at the 5-HT1Da and/or 5-HT1F receptors.
Guinea pigs were anesthetized with pentobarbitone sodium (60 mg kg^-1, i.p.). Animals were placed in a stereotaxic frame (DKI 900, David Kopf Instruments, Tujunga, CA, U.S.A.). The right femoral vein was exposed and [^125I]-BSA ([…]) was injected as a bolus. With the incisor bar set at -1.5 mm from the horizontal line, the calvarium was exposed by a midline incision. Symmetrical burr holes (2 mm in diameter) were drilled at 3.7 mm posterior to the bregma and 3.2 mm lateral to the sagittal suture. Bipolar electrodes (50 mm shaft, Rhodes Medical Instruments, Woodland Hills, CA, U.S.A.) were lowered into the trigeminal ganglia to a depth of 9.5 mm from the dura mater overlying the dorsal surface of the brain. […] Radioactivity was determined on two sides with a gamma counter (Micromedic 4/600, Micromedic Systems, Inc., Huntsville, AL, U.S.A.) as previously described (Markowitz, et al., 1987 and Lee, et al., 1993).

Question: Which ID50 does the source give for `CNS(=O)(=O)Cc1ccc2[nH]cc(CCN(C)C)c2c1` [sumatriptan] here?
Answer: The ID50 was 3.3 to 7 nM/kg.
